Assay results: patent publication US10280150B2 (FORMA TM2, Inc., priority 2014, dated 2019)
Like-named read-outs stand apart in the source and are kept apart here.

Columns and labels:
[1] = target: IDH1-R132H recombinant protein (Homo sapiens (Human), UniProt O75874, R132H); experiment: IDH1-R132H enzymatic assay (inhibition of NADPH consumption, diaphorase/resazurin readout); type: biochemical; settings: read-out: Enzyme IDH1 R132H IC50 (Range)
Procedure: (§1) Assays were performed in a 384-well black plate. An aliquot of 250 nL of compound was incubated with 10 μL of 30 nM IDH1-R132H or 10 nM IDH1-R132C recombinant protein in assay buffer (50 mM Tris pH=7.5, 150 mM NaCl, 5 mM MgCl2, 0.1% (w/v) Bovine Serum Albumin, and 0.01% Triton X-100) in each well at 25° C. for 15 minutes. After the plate was centrifuged briefly, an aliquot of 10 μL of 2 mM α-ketoglutarate and 20 μM NADPH solution prepared in assay buffer was then added to each well and the reaction was maintained at 25° C. for 45 minutes. An aliquot of 10 μL of diaphorase solution (0.15 U/mL diaphorase and 30 µM Resazurin in assay buffer) was added to each well. The plate was maintained at 25° C. for 15 minutes and then read on a plate reader with excitation and emission wavelengths at 535 nm and 590 nm, respectively. The IC50 of a given compound was calculated by fitting the dose response curve of inhibition of NADPH consumption at a given concentration with the four parameter logistic equation.

[2] = test system: HCT116 isogenic IDH1-R132H mutant cells; experiment: Cellular 2-HG assay using HCT116 mutant IDH1 cells (R132H), RapidFire mass spectrometry; type: cell-based; settings: Homo sapiens, read-out: HCT116 IDH1 R132H IC50 (Range)
Procedure: (§2) Example 106—Cellular 2-HG assay using HCT116 mutant IDH1 cells
(§3) HCT116 isogenic IDH1-R132H and IDH1-R132C mutant cells were cultured in growth media (McCoy's 5 A, 10% fetal bovine serum, 1× antibiotic-antimycotic solution and 0.3 mg/mL G418) in 5% CO2 in an incubator at 37° C. To prepare the assay, cells were trypsinized and resuspended in assay media (McCoy's 5 A with no L-glutamine, 10% fetal bovine serum, 1× antibiotic-antimycotic solution and 0.3 mg/mL G418). An aliquot of 10,000 cells/100 μL was transferred to each well of a clear 96-well tissue culture plate. The cells were incubated in 5% CO2 at 37° C. in an incubator overnight to allow for proper cell attachment. An aliquot of 50 μL of compound containing assay media were then added to each well and the assay plate was kept in 5% CO2 at 37° C. in an incubator for 24 hours. The media was then removed from each well and 150 μL of a methanol/water mixture (80/20 v/v) was added to each well. The plates were kept at −80° C. freezer overnight to allow for complete cell lysis. An aliquot of 125 μL of extracted supernatant was analyzed by RapidFire high-throughout-mass spectrometry (Agilent) to determine the cellular 2-HG level. The IC50 of a given compound was calculated by fitting the dose response curve of cellular 2-HG inhibition at a given concentration with the four parameter logistic equation.

[3] = target: IDH1-R132C recombinant protein (Homo sapiens (Human), UniProt O75874, R132C); experiment: IDH1-R132C enzymatic assay (inhibition of NADPH consumption, diaphorase/resazurin readout); type: biochemical; settings: read-out: Enzyme IDH1 R132C IC50 (Range)
Sequence of IDH1-R132C recombinant protein (O75874 whole entry R132C): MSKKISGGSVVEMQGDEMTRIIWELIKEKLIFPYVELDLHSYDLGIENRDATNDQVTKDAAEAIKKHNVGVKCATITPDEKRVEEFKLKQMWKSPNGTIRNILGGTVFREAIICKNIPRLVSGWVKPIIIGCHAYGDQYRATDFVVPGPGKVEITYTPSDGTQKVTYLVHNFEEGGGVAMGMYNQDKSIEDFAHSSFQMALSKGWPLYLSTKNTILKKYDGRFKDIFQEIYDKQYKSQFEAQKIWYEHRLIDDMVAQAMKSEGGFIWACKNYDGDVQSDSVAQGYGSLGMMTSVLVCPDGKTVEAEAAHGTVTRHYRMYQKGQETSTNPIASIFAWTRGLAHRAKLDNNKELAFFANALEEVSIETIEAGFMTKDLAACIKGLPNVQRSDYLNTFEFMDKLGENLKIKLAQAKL
Procedure: as §1

[4] = test system: HCT116 isogenic IDH1-R132C mutant cells; experiment: Cellular 2-HG assay using HCT116 mutant IDH1 cells (R132C), RapidFire mass spectrometry; type: cell-based; settings: Homo sapiens, read-out: HCT116 IDH1 R132C IC50 (Range)
Procedure: as §2, §3

[5] = HCT-116, cellular 2-HG level, HCT116 IDH1-R132H cells, 24 hours
[6] = HCT-116, cellular 2-HG level, HCT116 IDH1-R132C cells, 24 hours

Sequence of IDH1-R132H recombinant protein (O75874 whole entry R132H): as the sequence (O75874 whole entry R132C) above, with C132H counted along it

Row | IC50 [1] [µM] | IC50 [2, 5] [µM] | IC50 [3] [µM] | IC50 [4, 6] [µM] | SMILES | IC50 ([2]; HCT-116, 24 h) [µM] | IC50 ([4]; HCT-116, 24 h) [µM]
1 | 0.1 to 1 | 0.1 to 1 | 0.1 to 1 | 0.1 to 1 | CNC(=O)c1ccnc(N[C@@H](C)c2cc3cc(Cl)ccc3[nH]c2=O)n1 [Compound I-115] |  | 
2 | < 0.1 | < 0.1 |  | < 0.1 | COc1cc2[nH]c(=O)c([C@H](C)Nc3nccc(N4CCOC4=O)n3)cc2cc1Cl [Compound I-147] |  | 
3 | 0.1 to 1 | 0.1 to 1 |  | 1 to 10 | C[C@H](Nc1ncc(C#N)c(N)n1)c1cc2cc(Cl)ccc2[nH]c1=O [Compound I-37] |  | 
4 | < 0.1 |  | < 0.1 | 0.1 to 1 | C[C@H](Nc1nccc(-n2nnnc2C2CC2)n1)c1cc2cc(Cl)ccc2[nH]c1=O [Compound I-183, (S)-6-chloro-3-(1-((4-(5-cyclopropyl-1H-tetrazol-1-yl)pyrimidin-2-yl)amino)ethyl)quinolin-2(1H)-one] |  | 
5 | 1 to 10 |  | 1 to 10 |  | COc1cnccc1-c1ccnc(N[C@@H](C)c2cc3cc(Cl)ccc3[nH]c2=O)n1 [Compound I-97] |  | 
6 | 0.1 to 1 |  | 1 to 10 |  | C[C@H](Nc1nccc(CS(C)(=O)=O)n1)c1cc2cc(Cl)ccc2[nH]c1=O [Compound I-133] |  | 
7 | < 0.1 |  | < 0.1 |  | CC(C)[C@H]1COC(=O)N1c1ccnc(NCc2cc3cc(Cl)ccc3[nH]c2=O)n1 [Compound I-46, (S)-3-(2-(((6-Chloro-2-oxo-1,2-dihydroquinolin-3-yl)methyl)amino)pyrimidin-4-yl)-4-isopropyloxazolidin-2-one] |  | 
8 | 0.1 to 1 |  | 0.1 to 1 |  | CC(C)CS(=O)(=O)Cc1ccnc(N[C@@H](C)c2cc3cc(Cl)ccc3[nH]c2=O)n1 [Compound I-121, (S)-6-Chloro-3-(1-(4-(isobutylsulfonylmethyl)pyrimidin-2-ylamino)ethyl)quinolin-2(1H)-one] |  | 
9 | 0.1 to 1 |  | 1 to 10 |  | CC(C)N(c1ccnc(N[C@@H](C)c2cc3cc(Cl)ccc3[nH]c2=O)n1)S(=O)(=O)c1ccc2c(c1)oc(=O)n2C [Compound I-21] |  | 
10 | 1 to 10 |  | > 10 |  | COc1nc(N[C@@H](C)c2cc3ncccc3[nH]c2=O)ncc1C#N [Compound I-177, (S)—4-methoxy-2-((1-(2-oxo-1,2-dihydro-1,5-naphthyridin-3-yl)ethyl)amino)pyrimidine-5-carbonitrile] |  | 

Continued, compound first:

Row | SMILES | IC50 [1] [µM] | IC50 [2, 5] [µM] | IC50 [3] [µM] | IC50 [4, 6] [µM] | IC50 ([2]; HCT-116, 24 h) [µM] | IC50 ([4]; HCT-116, 24 h) [µM]
11 | O=C1OCCN1c1ccnc(NCc2cc3cc(Cl)ccc3[nH]c2=O)n1 [Compound I-47] | 0.1 to 1 | 0.1 to 1 | 0.1 to 1 | 1 to 10 |  | 
12 | CC(=O)Nc1ccnc(N[C@@H](C)c2cc3cc(Cl)c(F)cc3[nH]c2=O)n1 [Compound I-179, (S)—N-(2-((1-(6-chloro-7-fluoro-2-oxo-1,2-dihydroquinolin-3-yl)ethyl)amino)pyrimidin-4-yl)acetamide] | < 0.1 | < 0.1 | < 0.1 | < 0.1 |  | 
13 | C[C@H](Nc1nccc([S@+](C)[O-])n1)c1cc2cc(Cl)ccc2[nH]c1=O [Compound I-113] | < 0.1 | < 0.1 | 0.1 to 1 | 0.1 to 1 |  | 
14 | C[C@H](Nc1nccc(N2CCN(C)C2=O)n1)c1cc2cc(Cl)ccc2[nH]c1=O [Compound I-124] | 0.1 to 1 | 0.1 to 1 |  | 0.1 to 1 |  | 
15 | C[C@H](Nc1nccc(-c2cccn2C)n1)c1cc2cc(Cl)ccc2[nH]c1=O [Compound I-81] | < 0.1 | 0.1 to 1 |  | 0.1 to 1 |  | 
16 | C[C@H](Nc1ncc(C#N)c(C2CC2)n1)c1cc2cc(Cl)ccc2[nH]c1=O [Compound I-40, (S)-2-((1-(6-Chloro-2-oxo-1,2-dihydroquinolin-3-yl)ethyl)amino)-4-cyclopropylpyrimidine-5-carbonitrile] | < 0.1 | 1 to 10 |  | 0.1 to 1 |  | 
17 | COc1nc(N[C@@H](C)c2nc3cc(Cl)ccc3[nH]c2=O)ncc1C#N [Compound I-156, (S)-2-((1-(7-Chloro-3-oxo-3,4-dihydroquinoxalin-2-yl)ethyl)amino)-4-methoxy pyrimidine-5-carbonitrile] |  |  | 0.1 to 1 |  | < 0.1 | 0.1 to 1
18 | CC(C)(Nc1nccc(N2CCOC2=O)n1)c1cc2cc(Cl)ccc2[nH]c1=O [Compound I-170] | 0.1 to 1 | 0.1 to 1 |  | 1 to 10 |  | 
19 | C[C@H](Nc1nccc(-c2ccnn2C2CCCCO2)n1)c1cc2cc(Cl)ccc2[nH]c1=O (some centres unmarked) [Compound I-79] | < 0.1 | 1 to 10 |  | 1 to 10 |  | 
20 | CC(C)OC(=O)Nc1ccnc(N[C@@H](C)c2cc3cc(Cl)ccc3[nH]c2=O)n1 [Compound I-23, (S)-Isopropyl (2-((1-(6-chloro-2-oxo-1,2-dihydroquinolin-3-yl)ethyl)amino)pyrimidin-4-yl)carbamate] | 1 to 10 | 0.1 to 1 |  | 0.1 to 1 |  | 
21 | CC(C)[C@H]1COC(=O)N1c1ccnc(N[C@@H](C)c2cc3cc(Cl)ccc3[nH]c2=O)n1 [Compound I-42, (S)-3-(2-(((S)-1-(6-Chloro-2-oxo-1,2-dihydroquinolin-3-yl)ethyl)amino)pyrimidin-4-yl)-4-isopropyloxazolidin-2-one] | < 0.1 |  | < 0.1 | < 0.1 |  | 
22 | Cc1nc(N[C@@H](C)c2cc3cc(Cl)c(OCc4ccccn4)cc3[nH]c2=O)ncc1C#N [Compound I-153] | < 0.1 |  | < 0.1 | < 0.1 |  | 
23 | COc1nc(N[C@@H](C)c2cc3cc(Cl)c(C4CC4)cc3[nH]c2=O)ncc1C#N [Compound I-176, (S)-2-((1-(6-chloro-7-cyclopropyl-2-oxo-1,2-dihydroquinolin-3-yl)ethyl)amino)-4-methoxypyrimidine-5-carbonitrile] | < 0.1 |  | 0.1 to 1 |  |  | 
24 | CC(c1ccnc(N[C@@H](C)c2cc3cc(Cl)ccc3[nH]c2=O)n1)S(C)(=O)=O (stereo partly drawn) [Compound I-135, 6-Chloro-3-((1S)-1-((4-(1-(methylsulfonyl)ethyl)pyrimidin-2-yl)amino)ethyl) quinolin-2(1H)-one] | 1 to 10 |  | > 10 |  |  | 
25 | C[C@H](Nc1nccc(N(CCC2CCOCC2)S(C)(=O)=O)n1)c1cc2cc(Cl)ccc2[nH]c1=O [Compound I-16] | 0.1 to 1 |  | 1 to 10 |  |  | 
26 | C[C@@H](Nc1nccc(N2CCOC2=O)n1)c1cc2cc(Cl)ccc2[nH]c1=O [Compound I-45] | 1 to 10 |  | 1 to 10 |  |  | 
27 | O=C1OCCN1c1ccnc(NC2(c3cc4cc(Cl)ccc4[nH]c3=O)CC2)n1 [Compound I-168] | 0.1 to 1 |  | 1 to 10 |  |  | 
28 | COc1nc(NC2(c3cc4cc(Cl)ccc4[nH]c3=O)CC2)ncc1C#N [Compound I-169, 2-((1-(6-Chloro-2-oxo-1,2-dihydroquinolin-3-yl)cyclopropyl)amino)-4-methoxypyrimidine-5-carbonitrile] | 0.1 to 1 |  | 1 to 10 |  |  | 
29 | CC(C)CN(c1ccnc(N[C@@H](C)c2cc3cc(Cl)ccc3[nH]c2=O)n1)S(C)(=O)=O [Compound I-8, (S)—N-(2-(1-(6-Chloro-2-oxo-1,2-dihydroquinolin-3-yl)ethylamino)pyrimidin-4-yl)-N-isobutylmethanesulfonamide] | < 0.1 |  | < 0.1 |  |  | 
30 | Cc1cscc1-c1ccnc(N[C@@H](C)c2cc3cc(Cl)ccc3[nH]c2=O)n1 [Compound I-80] | < 0.1 | 0.1 to 1 |  | 0.1 to 1 |  | 
31 | CC(C)n1cncc1-c1ccnc(N[C@@H](C)c2cc3cc(Cl)ccc3n(C)c2=O)n1 [Compound I-173, (S)-6-chloro-3-(1-((4-(1-isopropyl-1H-imidazol-5-yl)pyrimidin-2-yl)amino)ethyl)-1-methylquinolin-2(1H)-one] | < 0.1 |  | < 0.1 |  |  | 
32 | Cc1c(-c2ccnc(N[C@@H](C)c3cc4cc(Cl)ccc4[nH]c3=O)n2)cnn1C [Compound I-74] | 0.1 to 1 | 0.1 to 1 |  | 0.1 to 1 |  | 
